Test system: tumor cells derived from NSCLC tumors of patients shown to be responsive to gefitinib
Experiment: Xenograft array: SCID mice bearing patient-derived NSCLC tumors treated with IRESSA
Assay type: in vivo
Conditions: SCID mice injected with patient-derived NSCLC tumor cells; injected with 200 mg/kg of IRESSA
Description: Positive expression was also confirmed using a Xenograft array. To make this array, SCID mice were injected with tumor cells derived from NSCLC tumors of patients shown to be responsive to gefitinib (IRESSA®), and tumors were allowed to grow. The mice then were injected with 200 mg/kg of IRESSA®, and the mice were monitored to observe responsiveness to the drug.

## COc1cc2ncnc(Nc3ccc(F)c(Cl)c3)c2cc1OCCCN1CCOCC1 [IRESSA, gefitinib]
  tumors formed in the SCID mice after treatment: reduced or eliminated

From patent US20120094311A1, “GENE AND PROTEIN EXPRESSION PROFILES ASSOCIATED WITH THE THERAPEUTIC EFFICACY OF EGFR-TK INHIBITORS” (priority 2007, published 2012)
